Test results taken from patent US20090099074A1, “MODULATING FOOD INTAKE” (CONJUCHEM BIOTECHNOLOGIES INC., priority 2007, published 2009).

Test system: Male Wistar rats
Test: Refeeding after 24 h fast, subcutaneous injection, sham operated or AP-SFO lesioned rats
Type: in vivo, rat
Procedure: Male Wistar rats were either sham operated or subjected to electrolytic lesions of the AP, SFO or both. Two weeks were allowed for recovery after surgeries while body weight, food and water intake were measured daily. Then rats, which were fasted for 24 hours, were subcutaneously injected with anorexigenic doses of PYY-HAS, PYY or saline (for controls) following which free access to food was reallowed. Food and water intake were measured for 24 hours following drug injections. […] However, the anorexigenic effect of both peptides was delayed in AP-SFO-lesioned rats, 1 hour in PYY treated rats and 2 hours in PYY-HAS treated rats.

## PYY
AP-SFO-lesioned rats
  delay of anorexigenic effect in AP-SFO-lesioned rats: 1 h
After 24 hours fast
  body weight gain after food deprivation: did not
  persistence of anorexigenic effect during refeeding: only during the first two hours of refeeding
  time of maximum anorexigenic effect: 1 h
